pEC50: −log10 of the molar value.
Legend:
[1] = Selectivity index, ratio of CC50 for cytotoxicity against human A549 cells to EC50 for antiviral activity against pseudotyped EBOV Mayinga infected in human A549 cells assessed as inhibition of Pseudoviral entry; assay type: toxicity, cell-based; details: read-out: Ratio CC50/EC50
[2] = Selectivity index, ratio of CC50 for cytotoxicity against human A549 cells to EC50 for antiviral activity against pseudotyped Marburgvirus Angola infected in human A549 cells assessed as inhibition of Pseudoviral entry; assay type: toxicity, cell-based; details: read-out: Ratio CC50/EC50
Ebolavirus = test: Antiviral activity against pseudotyped EBOV Mayinga infected in human A549 cells assessed as inhibition of Pseudoviral entry incubated for 40 hrs; assay type: functional, organism-based; details: Orthoebolavirus, A549, 40 h
Marburgvirus = test: Antiviral activity against pseudotyped Marburgvirus Angola infected in human A549 cells assessed as inhibition of Pseudoviral entry incubated for 40 hrs; assay type: functional, organism-based; details: Orthomarburgvirus, A549, 40 h

Structure (SMILES)	selectivity ratio [1]	selectivity ratio [2]	pEC50 (Ebolavirus)	pEC50 (Marburgvirus)
CN(C)CCCNC(=O)c1cc2occc2n1Cc1ccc(Cl)cc1	36	13	5.70	5.26
CN(C)C1CCN(C(=O)c2cc3ccccc3n2Cc2ccc(-c3ccccc3)cc2)CC1	14	7.2	5.97	5.70
CN(C)CCNC(=O)c1cn(Cc2ccc(F)cc2)c2ccccc12	21	8.9	5.52	5.19
CN(C)CCNC(=O)c1cc2occc2n1C(=O)OCc1ccccc1	> 12	> 3.1	5.09	4.51
CN(C)C1CCN(C(=O)CN(Cc2ccccc2)c2ccccc2)CC1	9.4	< 1	4.97	< 4.00
CN(C)CCNC(=O)c1cc2ccccc2n1Cc1ccc(-c2ccccc2)cc1	5.9	14	5.56	5.51
CC(C)N1CCN(C(=O)c2cc3occc3n2Cc2cccc(C(F)(F)F)c2)CC1	29	4.4	5.46	4.65
CN(C)C1CCN(C(=O)c2cc3ccccc3n2C)CC1	> 6.1	< 1	4.78	< 4.00
CN1CCCN(C(=O)c2cc3occc3n2Cc2cccc(C(F)(F)F)c2)CC1	40	8.1	5.76	5.06
CN(C)CCNC(=O)c1cc2ccccc2n1Cc1ccccc1	24	9.5	5.56	5.17
CN(C)CCNC(=O)c1cc2occc2n1Cc1ccccc1	22	3.9	5.35	4.59
CN1CCN(CCCNC(=O)c2cc3occc3n2Cc2ccc(Cl)cc2)CC1	42	10	5.73	5.11
CN1CCCN(C(=O)c2cc3sccc3n2Cc2ccc(Cl)cc2)CC1	24	9.3	5.38	4.97
CN(C)C1CCN(C(=O)c2cc3ccccc3n2Cc2cccnc2)CC1	> 19	2.6	5.28	4.41
CN(C)CCNC(=O)c1cc2occc2n1Cc1cccc(C(F)(F)F)c1	32	13	5.77	5.37
O=C(NCCN1CCC1)c1cc2occc2n1Cc1cccc(C(F)(F)F)c1	20	6.2	5.71	5.21
CN(C)CCNC(=O)c1cc2occc2n1Cc1ccc(F)cc1	> 38	> 93	5.58	4.97
CN(C)CCNC(=O)c1cc2sccc2n1Cc1ccc(Cl)cc1	19	13	5.66	5.50
CN1CCN(C(=O)c2cc3sccc3n2Cc2ccc(Cl)cc2)CC1	10	4.1	5.01	4.61
O=C(NCCCn1ccnc1)c1cc2occc2n1Cc1ccc(Cl)cc1	16	7.6	5.20	4.88
CN(C)CCNC(=O)c1cc2occc2n1C	1	1	< 4.00	< 4.00
CN1CCCN(C(=O)c2cc3occc3n2Cc2ccc(Cl)cc2)CC1	71	9.6	5.85	4.98
O=C(NCCCn1ccnc1)c1cc2occc2n1Cc1cccc(C(F)(F)F)c1	13	5.9	5.36	5.01
CN(C)C1CCN(C(=O)c2cc3ccccc3n2Cc2ccncc2)CC1	> 6.2	27	3.79	5.42

From ChEMBL document CHEMBL5576160, “N-Substituted Pyrrole-Based Heterocycles as Broad-Spectrum Filoviral Entry Inhibitors” (J Med Chem, 2024)
